Where a name gives a salt, the structure may show the parent alone.
Tests used:
Type in all cases: in vivo, C. elegans
[1] = test system: transgenic worms containing the transgene Punc-54::Q82::GFP without any torsinA expression; test: Protein aggregate assay in worms without torsinA expression
Experimental: C elegans nematodes were grown at 20° C. on NGM plates as described by Brenner (Brenner, Genetics, 1974, 77: 71-94). Several transgenic C. elegans lines were used for primary screens of the Prestwick small molecule library. A transgenic worm line expressing Punc-54::Q82-GFP; with both wild type (“wt”) (Punc=54: :torsinA) or mutant (Punc-54::torsinA(ΔE)). Torsin-A expresses a phenotype that results in visible protein aggregation under fluorescent microscope. Transgenic worms were plated on drug plates and progeny were studied for a return to soluble protein. […]
(§1) The screening assays used to identify the compounds use protein aggregation readouts to determine the specificities of molecular action. […]
(§2) The methods for the aggregate analysis assay are described in Caldwell et al. (Hum Mol Genetics, 2003, 12(3): 307-319). […] MetaMorph Software (Universal Imaging Inc.) was used for pseudocoloration of images, image overlay, and aggregate size quantitation. For each worm line analyzed, average aggregate size was determined by capturing images of all aggregates in the posterior region of 30 L3-staged animals (for Q82::GFP aggregates) or all aggregates in 30 adult animals/day (for Q19::GFP analyses) at 1000× magnification. […]

[2] = test system: worms containing Pdat-1::GFP+Pdat-1::torsinA+Pdat-1::torsinA (ΔE) after 6-OHDA exposure; test: 6-OHDA dopaminergic neurodegeneration in worms with wt and mutant torsinA; details: wt and mutant torsinA co-expressed; 6-OHDA insult
Text: Previous studies have established that the “CEP” and “ADE” mechanosensory neurons in C. elegans undergo readily discernable neuronal degeneration after treatment with the dopamine-selective neurotoxin 6-OHDA (Nass et al, 2002). The toxicity of 6-OHDA is mediated through the formation of reactive oxygen species by the generation of hydrogen peroxide and […] via a nonenzymatic auto-oxidation process (Kumar et al., 1995; Foley and Riederer, 2000). […] This degeneration can be monitored in living animals by coexpressing with green fluorescent protein and categorized into three temporally and morphologically distinct stages, including neuronal process blebbing, cell body rounding with process loss, and cell body loss. These characteristic changes reproducibly appear in this order within a few hours, recapitulating observations in MPTP-treated monkeys and in 6-OHDA-treated rats, in which damage to striatal terminals leads to retrograde changes and precedes that of SNpc cell bodies (Berger et al., 1991; Herkenham et al., 1991). The actions of torsin protein in 6-OHDA-mediated neurodegeneration has recently been shown (Cao et al., J Neurosci, 25(1):3801-3812). Animals were treated with various concentrations of 6-OHDA and neurodegeneration was followed over time, as worms develop and age, by co-expression of a dopamine GFP marker in these transparent animals.
C. elegans nematodes were grown at 25° C. on NGM plates as described by Brenner (Brenner, Genetics, 1974, 77: 71-94). Two transgenic C. elegans lines were used for primary screens of the Prestwick small molecule library. A transgenic worm line expressing Pdat-1::GFP; with both wild type (Pdat-1::torsinA) or mutant (Pdat-1:::torsinA(ΔE)). Torsin-A expresses a phenotype that results in visible neurodegeneration after treatment with 6-OHDA. Transgenic worms were plated on drug plates and progeny were studied for morphological changes in the 8 dopaminergic neurons present in C. elegans.
Drugs were administered to C. elegans according to a standard procedure (Rand and Johnson, Methods Cell Biol, 1995, 48: 187-204) by mixing the solubilized drug with the agar medium on which the worms are grown. This mode of administration allows the continuous exposure of worms to the drug.
Each drug was first dissolved in an appropriate solvent, followed by adding the drug solution into pre-autoclaved media, with the volume of drug solution already taken into account. All drugs were tested at 0.5 mg/ml initial concentration, a few of which were toxic to worms and then tested at 0.1 mg/ml or 0.025 mg/ml concentration. Each plate was seeded with 100 μl concentrated E. coli OP50 bacteria
Age-synchronized worms were obtained by treating gravid adults with 2% sodium hypochlorite and 0.5M NaOH to isolate embryos (Lewis Fleming, 1995). These embryos were grown for 30 h at 25° C. At the L3 stage, larvae were incubated with 10 mM (50 mM) 6-OHDA and 2 mM (or 10 mM) ascorbic acid for 1 h with gentle agitation every 10 minutes. (Nass et al., 2002). The worms were then washed and spread onto NGM plates seeded with bacteria (OP50) and scored at time points ranging from 2 to 72 h after 6-OHDA exposure.
Immediately after 6-OHDA treatment, worms containing the transgenes were selected under a fluorescence dissecting microscope, based on the presence of GFP, and transferred to a fresh NGM plate seeded with OP50. For each time point, 30-40 worms were applied to a 2% agarose pad and immobilized with 3 mM levamisole. Worms were examined under a Nikon Eclipse E800 epifluorescence microscope equipped with an Endow GFP filter cube (Chroma Technology, Rockingham, Vt.). For ease of analysis, only the four CEP DA neurons in the head of the worm were scored. […]

[3] = test system: Pdat-1::GFP+Pdat-1::α-synuclein+Pdat-1::torsinA worms; test: α-synuclein toxicity assay, wt torsinA
Text: (§3) We have previously shown that torsinA can prevent dopamine (“DA”) neuron degeneration resulting from overexpression of α-synuclein in the DA neurons of C. elegans, while torsinA (“ΔE”) has a reduced neuroprotection (Cao et al., J Neurosci, 2005, 25(1): 3801-3812). Specifically, only 26.1±5.3% of the worms expressing Pdat-1::GFP+Pdat-1::α-synuclein maintained all 4 wildtype CEP DA neurons as 4 day adults while the percentages of the worms expressing Pdat-1::GFP+Pdat-1::α-synuclein+Pdat-1::torsinA and Pdat-1::GFP+Pdat-1::α-synuclein+Pdat-1:: torsinA (ΔE) are 57.3±1.6% and 42.2±7.3%, respectively (Cao et al., J Neurosci, 2005, 25(1): 3801-3812) (FIG. 8).
(§4) All molecules are coded by Prestwick Library number. TorsinA-dependent compounds identified from the aggregation assay have torsinA-specific effects and, therefore, are likely to function in the same manner in the α-synuclein toxicity assay. All three α-synuclein transgenic lines were exposed to the five torsinA-dependent compounds to determine their torsinA-specificity (FIG. 9). As expected, none of these compounds had any effect in Pdat-1::GFP+Pdat-1::α-synuclein when torsinA expression is absent.

[4] = test system: worms expressing Punc-54::Q82::GFP+Punc-54::torsinA with wt torsinA only; test: Protein aggregate assay in worms with wt torsinA only
Experimental: (§5) C elegans nematodes were grown at 20° C. on NGM plates as described by Brenner (Brenner, Genetics, 1974, 77: 71-94). Several transgenic C. elegans lines were used for primary screens of the Prestwick small molecule library. A transgenic worm line expressing Punc-54::Q82-GFP; with both wild type (“wt”) (Punc=54: :torsinA) or mutant (Punc-54::torsinA(ΔE)). Torsin-A expresses a phenotype that results in visible protein aggregation under fluorescent microscope. Transgenic worms were plated on drug plates and progeny were studied for a return to soluble protein.
(§6) Drugs were administered to C. elegans according to a standard procedure (Rand and Johnson, Methods Cell Biol, 1995, 48: 187-204), by mixing the solubilized drug with the agar medium on which the worms are grown. This mode of administration allows the continuous exposure of worms to the drug.
Each drug was first dissolved in an appropriate solvent, followed by adding the drug solution into pre-autoclaved media, with the volume of drug solution already taken into account. […]
as §1, §2
(§7) To see the effect of the candidate compounds on suppressing protein misfolding and aggregation, five gravid adult worms were placed onto each drug plate and grown at 20° C. for approximately 3 days. Thirty Fl worms at L3 stage and young adult stage were counted for aggregate number.

[5] = test system: protein misfolding and aggregation in transgenic worms; test: Corrective assay of protein aggregation (drug from L2 stage onward); details: drug exposure from L2 stage onward; scored at L3 and young adult
Experimental: To see the corrective effect of the candidate drug compounds on protein misfolding and aggregation, five gravid adult worms were placed onto a solvent control plate and grown at 20° C. for approximately 3 days. 35-40 Fl worms at L2 stage were picked and transferred to a drug plate. Thirty worms at L3 stage were counted for aggregate number 8 hours later. Thirty young adults were analyzed 32 hours later.
(§8) To calculate the scaled effectiveness of special regimen of drugs on worms based on standardized decrease in protein aggregates. The following formula was used: (A−B)/(A−C)×100%, where
(§9) A=number of aggregates for worms growing on solvent control plates
(§10) B=number of aggregates for worms grown on the specific drug plate for the entire life of the worms
C=number of aggregates for worms that received exposure from L2 stage (until adulthood)
(§11) If the regimen has no effect, the value would equal 0%. Conversely, if the regimen was as effective as raising the worms on the drug for their entire life, the value would equal 100%.

[6] = test system: worms containing Punc-54::Q82::GFP+Punc-54::torsinA+Punc54::torsinA (ΔE); test: Screen for reduction of polyglutamine protein aggregates in worms with wt and mutant torsinA; details: differentiated by Q82::GFP lines without torsinA, with wt torsinA or with mutant torsinA
Experimental: as §5, §6
Each drug was first dissolved in an appropriate solvent, followed by adding the drug solution into pre-autoclaved media, with the volume of drug solution already taken into account. […] Each plate was seeded with 100 μl concentrated E. coli OP50 bacteria.
as §1, §2, §7

[7] = test system: protein misfolding and aggregation in transgenic worms; test: Preventative assay of protein aggregation (drug from hatching to L2 stage); details: exposure from hatching to L2 stage; scored at L3 and young adult
Experimental: To see the preventative effects of the candidate drug compounds on protein misfolding and aggregation, five gravid adult worms were placed onto each drug plate and grown at 20° C. for approximately 3 days. 35-40 Fl worms at L2 stage were picked and transferred to a control plate with the same concentration of control solvent compared to the drug plate. Thirty worms at L3 stage were counted for aggregate number 8 hours later. Thirty young adults were analyzed 32 hours later.
as §8, §9, §10
C=number of aggregates for worms that received pre-L2 exposure and were then removed to solvent control plates
as §11

[8] = test system: Pdat-1::GFP+Pdat-1::α-synuclein+Pdat-1:: torsinA (ΔE) worms; test: α-synuclein toxicity assay, mutant torsinA
Text: as §3, §4

GFP::DAT-1 = test: Pdat-1::GFP::DAT-1 expression within DA neurons; details: for Neurons with cell body and dendritic/axonal GFP: water control 70%; for Mean pixel intensity of cell bodies ± SEM (fluorescence intensity): water control 1970 ± 80, compounds at 1.85, 1.49, 1.86 mM
[9] = Pdat-1::GFP::DAT-1, listed as Ciclopirox etnanolamine

CCCCOc1ccc(C(=O)CCN2CCCCC2)cc1 [Compound 264, Dyclonine HCl]
reduction of protein aggregates [1]: reduced the presence of protein aggregates

CC1(C)S[C@@H]2[C@H](NC(=O)C(C(=O)O)c3ccccc3)C(=O)N2[C@H]1C(=O)O (stereo partly shown) [Compound 703, Carbenicillin disodium salt]
neuroprotection of dopaminergic neurons against 6-OHDA [2]: neuroprotective actions to the same degree as compound 235

CC1(C)S[C@@H]2[C@H](NC(=O)[C@H](N)c3ccc(O)cc3)C(=O)N2[C@H]1C(=O)O [Compound 357, Amoxiciflin]
neuroprotection of dopaminergic neurons against 6-OHDA [2]: neuroprotective actions in this model, albeit to a lesser degree

Cc1onc(-c2ccccc2Cl)c1C(=O)N[C@@H]1C(=O)N2[C@@H]1SC(C)(C)[C@@H]2C(=O)O [Compound 186, Cloxacillin sodium salt]
neuroprotection of dopaminergic neurons against 6-OHDA [2]: neuroprotective actions in this model, albeit to a lesser degree

CC1=C(C(=O)O)N2C(=O)[C@@H](NC(=O)[C@H](N)c3ccc(O)cc3)[C@H]2SC1 [Compound 434, Cefadroxil]
neuroprotection of dopaminergic neurons against 6-OHDA [2]: neuroprotective actions to the same degree as compound 235

CCn1cc(C(=O)O)c(=O)c2cc3c(cc21)OCO3 [Compound 193, Oxolinic Acid]
enhanced wild type DA neuron survival [3]: 31.4±3.7% | reduction of protein aggregation [4]: reduced protein aggregation | corrective effect on protein aggregation [5]: seem to be beneficial | Specificity in worm assay [6]: wt torsinA | preventative effect on protein aggregation [7]: seem to be beneficial | enhanced DA neuron survival [8]: no significant neuroprotection

Cc1cc(C2CCCCC2)n(O)c(=O)c1.NCCO [Ciclopirox ethanolamine]
neuroprotection of dopaminergic neurons against 6-OHDA [2]: showed no neuroprotection | Worms with no GFP (GFP::DAT-1; Pdat-1::GFP::DAT-1, water control 0%): 0% | Neurons with cell body GFP only (GFP::DAT-1; Pdat-1::GFP::DAT-1, water control 30%): 32.3% | Neurons with cell body and dendritic/axonal GFP (GFP::DAT-1; Pdat-1::GFP::DAT-1): 66.7% | Neurons with cell body and dendritic/axonal GFP (GFP::DAT-1; [9]): 66.7% | Mean pixel intensity of cell bodies ± SEM (fluorescence intensity) (GFP::DAT-1; Pdat-1::GFP::DAT-1): 1923 A.U. | Mean pixel intensity of cell bodies ± SEM (fluorescence intensity) (GFP::DAT-1; [9]): 1923 ± 85 A.U. | effect on GFP::DAT-1 level (GFP::DAT-1; result in words): did not have any significant effect

Reference: patent US20070203079A1, “Methods of using small molecule compounds for neuroprotection” (priority 2005, published 2007)
